According to patent publication US9540691B2, “Assays and methods for selecting a treatment regimen for a subject with depression” (THE GENERAL HOSPITAL CORPORATION, priority 2011, dated 2017):
Like-named read-outs stand apart in the source and are kept apart here.

Columns and labels:
[1] = system: patients with major depressive disorder (MDD) resistant to treatment with SSRIs
Description: Documentation of the presence of any side effect or adverse event is completed at every visit using the SAFTEE-SI. Subjects can contact a clinician at any time between visits concerning adverse events or worsening of symptoms. Suicidal ideation is assessed at each visit. Subjects who are felt by the study clinician to be at high risk for suicide are discontinued from the study and referred for hospitalization and further treatment if clinically indicated (See Tables 4 & 5 below).
One-way analysis of variance can be used to assess differences in total number of SAFTEE-SI AEs between baseline and endpoint.
The study involved the enrollment of a total of 148 patients with MDD over the course of 12 months across 10 medical centers or hospitals in the United States. […] In accordance with the sequential parallel design, the 60-day, double-blind treatment was divided into two phases of 30 days each, with assessments performed every 10 days. […] For those randomly assigned to the placebo/placebo sequence, both responders and non-responders to placebo during the first phase remained on placebo during the second phase.

[2] = system: remitters with MDD at end of double-blind phase; details: for Relapsers (HAM-D-17 > 15) during 12-month maintenance phase: 15 mg/day 6(S)-5-MTHF as an adjuvant
Description: During each visit, patients are administered the HAM-D-28, the CGI, the QIDS-SR, the SAFTEE-SI, the MGH-CPFQ, and the MGH-SFQ (See, e.g., Table 10 below). […] Subjects are also allowed to change their antidepressant during the course of the follow-up, if deemed appropriate. For patients who refuse the 12 months of free follow-up care, a referral to a psychiatrist is offered.

[3] = system: MDD patients with at least one rare variant in an indicated SNP biomarker; details: with an SSRI
[4] = L-methylfolate 7.5 mg (n = 24) with SSRI
[5] = L-methylfolate 7.5 mg vs placebo
[6] = L-methylfolate 16 mg (n = 30) with SSRI
[7] = L-methylfolate 16 mg vs placebo
[8] = CACNA1C rs1006737 (AG), 13(30, 16)
[9] = COMT (Val 158) rs4633 (CC), 22(18, 9)
[10] = COMT (Val 158 Met) rs4680 (GG), 33(17, 9)
[11] = DAT (SLC6A3) rs250682 (CG), 33(33, 15)
[12] = DNMT38 rs1883729 (AG), 11(13, 8)
[13] = DNMT38 rs1883729 (AG), 11/13(32, 18)
[14] = DNMT38 rs1883729 (AG), 13(19, 10)
[15] = DRD2 (H313H) rs6275 (TT), 11(10, 5)
[16] = DRD2 (SLC26A9) rs11240594 (AG), 33(36, 20)
[17] = DRD2 (Taql Br) rs1079596 (TC), 42(18, 11)
[18] = DRD2 (Taql Br) rs1079596 (TC), 42/44(18, 11)
[19] = FDRC rs2277820 (TC), 22(30, 15)
[20] = GCHFR rs7163862 (TA), 41(37, 20)
[21] = GCHI rs8007267 (TC), 42(22, 10)
[22] = GCPH or FOLH1 rs202676 (AG), 31(23, 9)
[23] = MTHFD 1 G1958A (R653Q) rs2236225 (AG), 33(28, 16)
[24] = MTHFR G1793A rs2274976 (GA), 42(19, 5)
[25] = PCYT1A rs7639752 (AA), 11(12, 7)
[26] = RCF1 A > G rs2297291 (AA), 11(12, 7)
[27] = RCF2 (in SLC19A3) rs12659 (TT), 11(10, 7)
[28] = RCFI (in SLC19A1) rs1051266 (AA), 44(11, 6)

SMILES: CN1c2c(nc(N)[nH]c2=O)NC[C@@H]1CNc1ccc(C(=O)N[C@@H](CCC(=O)O)C(=O)O)cc1 [6(S)-5-MTHF, 6(S)-5-methyltetrahydrofolate]
- Cardiovascular side effects, Frequency (%) [1, 4]: 0 (0%)
- Gastrointestinal side effects, Frequency (%) [1, 4]: 9 (9.8%)
- Infectious side effects, Frequency (%) [1, 4]: 6 (6.4%)
- Miscellaneous side effects, Frequency (%) [1, 4]: 1 (1.1%)
- Paychological [sic] side effects, Frequency (%) [1, 4]: 2 (2.1%)
- Sexual side effects, Frequency (%) [1, 4]: 0 (0%)
- Sleep side effects, Frequency (%) [1, 4]: 3 (3.2%)
- Somatic side effects, Frequency (%) [1, 4]: 9 (8.6%)
- Cardiovascular side effects, NNH [1, 5]: < placebo
- Gastrointestinal side effects, NNH [1, 5]: < placebo
- Infectious side effects, NNH [1, 5]: < placebo
- Miscellaneous side effects, NNH [1, 5]: < placebo
- Paychological [sic] side effects, NNH [1, 5]: < placebo
- Sexual side effects, NNH [1, 5]: =placebo
- Sleep side effects, NNH [1, 5]: < placebo
- Somatic side effects, NNH [1, 5]: < placebo
- Cardiovascular side effects, Frequency (%) [1, 6]: 2 (6.7%)
- Gastrointestinal side effects, Frequency (%) [1, 6]: 3 (10.0%)
- Infectious side effects, Frequency (%) [1, 6]: 2 (6.7%)
- Miscellaneous side effects, Frequency (%) [1, 6]: 2 (6.7%)
- Paychological [sic] side effects, Frequency (%) [1, 6]: 2 (6.7%)
- Sexual side effects, Frequency (%) [1, 6]: 0 (0%)
- Sleep side effects, Frequency (%) [1, 6]: 2 (6.7%)
- Somatic side effects, Frequency (%) [1, 6]: 3 (10.0%)
- Cardiovascular side effects, NNH [1, 7]: < placebo
- Gastrointestinal side effects, NNH [1, 7]: < placebo
- Infectious side effects, NNH [1, 7]: < placebo
- Miscellaneous side effects, NNH [1, 7]: < placebo
- Paychological [sic] side effects, NNH [1, 7]: < placebo
- Sexual side effects, NNH [1, 7]: =placebo
- Sleep side effects, NNH [1, 7]: < placebo
- Somatic side effects, NNH [1, 7]: < placebo
- adverse side effect when administered with an SSRI (in words) ([1]; Trial 1): does not appear to cause any adverse side effect
- Relapsers (HAM-D-17 > 15) during 12-month maintenance phase ([2]; Trial 1 remitters (2 entering)): 0
- Relapsers (HAM-D-17 > 15) during 12-month maintenance phase ([2]; Trial 2 remitters (9 entering)): 0
- relapse during 12-month maintenance phase (in words) ([2]; remitters at end of double-blind phase, adjunctive 15 mg/day): did not have a relapse
- EFFECT on change in HAMD-28, PHASE I [3, 8]: −8.006
- EFFECT on change in HAMD-28, PHASE II [3, 8]: −2.467
- EFFECT on change in HAMD-28, POOLED PHASES [3, 8]: −4.633
- EFFECT on change in HAMD-28, PHASE I [3, 9]: −10.070
- EFFECT on change in HAMD-28, PHASE II [3, 9]: −10.170
- EFFECT on change in HAMD-28, POOLED PHASES [3, 9]: −9.240
- EFFECT on change in HAMD-28, PHASE I [3, 10]: −12.070
- EFFECT on change in HAMD-28, PHASE II [3, 10]: −10.170
- EFFECT on change in HAMD-28, POOLED PHASES [3, 10]: −10.880
- EFFECT on change in HAMD-28, PHASE I [3, 11]: −5.722
- EFFECT on change in HAMD-28, PHASE II [3, 11]: −5.768
- EFFECT on change in HAMD-28, POOLED PHASES [3, 11]: −4.996
- EFFECT on change in HAMD-28, PHASE I [3, 12]: −2.318
- EFFECT on change in HAMD-28, PHASE II [3, 12]: −5.267
- EFFECT on change in HAMD-28, POOLED PHASES [3, 12]: −4.811
- EFFECT on change in HAMD-28, PHASE I [3, 13]: −6.340
- EFFECT on change in HAMD-28, PHASE II [3, 13]: −4.940
- EFFECT on change in HAMD-28, POOLED PHASES [3, 13]: −5.360
- EFFECT on change in HAMD-28, PHASE I [3, 14]: −8.097
- EFFECT on change in HAMD-28, PHASE II [3, 14]: −4.667
- EFFECT on change in HAMD-28, POOLED PHASES [3, 14]: −6.748
- EFFECT on change in HAMD-28, PHASE I [3, 15]: −16.560
- EFFECT on change in HAMD-28, PHASE II [3, 15]: 1.667
- EFFECT on change in HAMD-28, POOLED PHASES [3, 15]: −7.627
- EFFECT on change in HAMD-28, PHASE I [3, 16]: −5.018
- EFFECT on change in HAMD-28, PHASE II [3, 16]: −3.424
- EFFECT on change in HAMD-28, POOLED PHASES [3, 16]: −3.758
- EFFECT on change in HAMD-28, PHASE I [3, 17]: −10.640
- EFFECT on change in HAMD-28, PHASE II [3, 17]: −3.893
- EFFECT on change in HAMD-28, POOLED PHASES [3, 17]: −6.903
- EFFECT on change in HAMD-28, PHASE I [3, 18]: −10.640
- EFFECT on change in HAMD-28, PHASE II [3, 18]: −3.893
- EFFECT on change in HAMD-28, POOLED PHASES [3, 18]: −6.903
- EFFECT on change in HAMD-28, PHASE I [3, 19]: −2.634
- EFFECT on change in HAMD-28, PHASE II [3, 19]: −6.232
- EFFECT on change in HAMD-28, POOLED PHASES [3, 19]: −4.027
- EFFECT on change in HAMD-28, PHASE I [3, 20]: −6.380
- EFFECT on change in HAMD-28, PHASE II [3, 20]: −4.542
- EFFECT on change in HAMD-28, POOLED PHASES [3, 20]: −4.863
- EFFECT on change in HAMD-28, PHASE I [3, 21]: −7.729
- EFFECT on change in HAMD-28, PHASE II [3, 21]: −5.417
- EFFECT on change in HAMD-28, POOLED PHASES [3, 21]: −6.654
- EFFECT on change in HAMD-28, PHASE I [3, 22]: −7.314
- EFFECT on change in HAMD-28, PHASE II [3, 22]: −3.300
- EFFECT on change in HAMD-28, POOLED PHASES [3, 22]: −5.402
- EFFECT on change in HAMD-28, PHASE I [3, 23]: −2.742
- EFFECT on change in HAMD-28, PHASE II [3, 23]: −3.762
- EFFECT on change in HAMD-28, POOLED PHASES [3, 23]: −3.496
- EFFECT on change in HAMD-28, PHASE I [3, 24]: −5.333
- EFFECT on change in HAMD-28, PHASE II [3, 24]: 2.833
- EFFECT on change in HAMD-28, POOLED PHASES [3, 24]: −5.551
- EFFECT on change in HAMD-28, PHASE I [3, 25]: −10.400
- EFFECT on change in HAMD-28, PHASE II [3, 25]: −3.900
- EFFECT on change in HAMD-28, POOLED PHASES [3, 25]: −6.216
- EFFECT on change in HAMD-28, PHASE I [3, 26]: −8.778
- EFFECT on change in HAMD-28, PHASE II [3, 26]: −1.400
- EFFECT on change in HAMD-28, POOLED PHASES [3, 26]: −5.458
- EFFECT on change in HAMD-28, PHASE I [3, 27]: −7.571
- EFFECT on change in HAMD-28, PHASE II [3, 27]: −1.400
- EFFECT on change in HAMD-28, POOLED PHASES [3, 27]: −4.860
- EFFECT on change in HAMD-28, PHASE I [3, 28]: −10.000
- EFFECT on change in HAMD-28, PHASE II [3, 28]: −2.750
- EFFECT on change in HAMD-28, POOLED PHASES [3, 28]: −7.673
